Data published in US10813939B2, “Bromodomain inhibitor as adjuvant in cancer immunotherapy” (H. LEE MOFFITT CANCER CENTER AND RESEARCH INSTITUTE, INC., priority 2014, dated 2020).
Entries after “also recorded” stand apart in the source; their conditions may differ.

Assays:
Assay type in all cases: cell-based
[1] = test system: PEM; assay: PEM cell viability after 24 hours JQ1
Method: In order to determine the best working concentration of JQ1 in PEM, plated PEM (96-well plate) were treated with increased concentration of JQ1 for 24 hours then cell viability was determined. A threshold of 100 to 800 nanomolar was determined to be acceptable.

[2] = test system: Naïve CD4 T-cells; assay: JQ1-treated PEM co-cultured with naive CD4 T-cells and OVA peptide, cytokine ELISA; conditions: PEM treated 24 hours, co-culture 48 hours with OVA peptide
Method: (§1) PEM were treated with different concentrations of JQ1 in presence and absence of LPS. After 24 hours, PEM was washed twice with warm RPMI. Naïve CD4 T-cells or tolerant T-cells were added to the plated macrophages with or without OVA peptide and co-cultured for 48 hours. IL-2 and IFN-γ production were determined by ELISA. Without OVA peptide, there was no production of IL-2 or IFN-γ.

[3] = test system: IL-6; assay: IL-6 mRNA expression by real time PCR in PEM; conditions: PEM or DCs, increasing JQ1, LPS stimulation
[4] = test system: PD-L1; assay: Flow cytometry of PEM with anti-PD-L1; conditions: JQ1 & LPS versus LPS alone, treated versus untreated APCs
Method: (§2) PEM were treated with different concentrations of JQ1 in presence and absence of LPS. Flow cytometry was performed on PEM treated with different concentrations of JQ1 in presence and absence of LPS using anti-PD-Ll and anti-PD-L2 as well as isotype as a control.

[5] = test system: IL-10; assay: IL-10 mRNA expression by real time PCR in PEM; conditions: PEM or DCs, increasing JQ1, LPS stimulation
[6] = test system: IL-6; assay: IL-6 production by ELISA in PEM treated with JQ1 with and without LPS; conditions: PEM (PEM or bone marrow derived DCs), 24 hours, supernatant ELISA
Method: (§3) Macrophages (PEM) were treated with different concentrations of JQ1 in presence and absence of LPS (stimulant for macrophages). After 24 hours, supernatant was collected and IL -10 & IL-6 production was determined by ELISA.

[7] = test system: PD-L2; assay: Flow cytometry of PEM with anti-PD-L2; conditions: JQ1 & LPS versus LPS alone
Method: as §2

[8] = test system: PD-L1; assay: PD-L1 mRNA expression by real time PCR in PEM; conditions: LPS+JQ1 combination
[9] = test system: tolerant CD4+ T-cells; assay: JQ1-treated PEM co-cultured with tolerant T-cells and OVA peptide, IFN-γ ELISA; conditions: PEM treated with JQ1+LPS 24 hours, co-culture 48 hours with OVA peptide, tolerant CD4+ T-cells from lymphoma bearing hosts
Method: as §1

[10] = test system: IL-10; assay: IL-10 production by ELISA in PEM treated with JQ1 with and without LPS; conditions: PEM (PEM or bone marrow derived DCs), 24 hours, supernatant ELISA
Method: as §3

With `Cc1sc2c(c1C)C(c1ccc(Cl)cc1)=N[C@@H](CC(=O)OC(C)(C)C)c1nnc(C)n1-2` [JQ1, (S)-tert-butyl 2-(4-(4-chlorophenyl)-2,3,9-trimethyl-6H-thieno[3,2-f][1,2,4]triazolo[4,3-a][1,4]diazepin-6-yl)acetate] the “acceptable working concentration threshold (cell viability)” value ([1]; PEM, 96-well plate, 24 hours) was 100 to 800 nM, the “viability of treated APCs” value ([1]; at the concentration used (FIG. 1)) was “did not affect the viability” and the “IFN-gamma production by CD4 T-cell” value [2] was “increase in dose dependent production”. The “IL-2 production by CD4 T-cell” value [2] was “increase in dose dependent production”, the “IFN-gamma production by CD4 T-cell” value ([2]; listed as JQ 1) was “increased production” and the “IL-2 production by CD4 T-cell” value ([2]; listed as JQ 1) was “increased production”. For the same molecule, the “IL-6 expression (mRNA)” value [3] was “decreased expression”, the “PD-L1 expression (flow cytometry)” value [4] was “relatively decreased expression” and the “PD-L1 expression (flow cytometry)” value ([4]; listed as JQ 1) was “decreased expression; also recorded: lower expression”. For the same molecule, the “IL-10 expression (mRNA)” value [5] was “decreased expression”, the IL-6 production [6] was “decreased production” and the IL-6 production ([6]; listed as JQ 1) was “decreased expression and protein production”. For the same molecule, the “PD-L2 expression (flow cytometry)” value [7] was “relatively decreased expression”, the “PDL1 mRNA expression” value [8] was “decreased expression” and the “IFN-gamma production by tolerant T-cells / responsiveness of tolerant T-cells” value [9] was “enhanced IFN-gamma production; also recorded: restoration of tolerant T-cell function”. For the same molecule, the “IFN-gamma production by tolerant T-cells / responsiveness of tolerant T-cells” value ([9]; listed as JQ 1) was “able to restore the responsiveness; also recorded: capable of restoring the responsiveness”, the IL-10 production [10] was “decreased production” and the IL-10 production ([10]; listed as JQ 1) was “decreased expression and protein production”.
